How the values were obtained:
Test in all cases: association of peptide with HLA molecules and stability of the complex
Assay type in all cases: binding, human
Settings in all cases: stable complex: peptide remains bound for at least about 3 hours at 37° C.
[1] = tested on: HLA molecules of the B35 type
Excerpt: (§1) The different epitopes of the polyepitopic region of the predetermined protein, and delimiting the epitopic protein fragments, are preferably selected from the peptides; • binding to a predetermined molecule of MCH, particularly to a molecule of the predetermined HLA type, and this from concentrations of about 10^−6 M to about 10^−10 M in peptide for concentrations of about 10^−7 M of HLA molecules, particularly under the conditions described hereafter, • and forming a stable complex with said MCH molecule, namely particularly a complex in which said peptide remains bound to said molecule for at least about 3 hours at 37° C.
(§2) By way of illustration, the above-mentioned epitopes of the invention are selected from among the peptides adapted: • on the one hand of associating with the molecules of MCH, particularly by using the following method: • incubation (particularly for about 2 hours at 25° C., then about 15 hours at 4° C.) of the peptide in the presence of MCH molecules, from the lysis of human or animal cells, or purified particularly by affinity chromatography from human or animal cell lines, • trapping complexes formed during the preceding step on a solid support covered with a first antibody, particularly monoclonal, recognizing specifically the CMH molecules in their configuration dependent on their connection to said peptide, • addition to the preceding solid support of a second marked antibody, particularly by coupling to a radioactive, enzymatic or fluorescent marker, said marked antibody recognizing specifically either the long chains of MCH in their configuration dependent on their connection to the peptide, or the short chain of MCH or the β2-microglobulin binding specifically to the different long chains of the MCH in their above-mentioned configuration, • detection, after rinsing of the solid support, of the possible presence of the second marked antibody remaining fixed on the solid support, signifying an association effect between the molecules of MCH and the peptide studied, • and, on the other hand, forming a complex with said MCH molecules, whose stability can be evaluated by the use of a method of following according to time the connection established between the peptide and the MCH molecules, this method being preferably carried out according to a protocol identical to the preceding method, but in which the incubation step of the peptide in the presence of MCH molecules on the solid support covered with said first antibody, is preceded by a preliminary step of eliminating the free peptide adapted that may be present in the reaction medium, particularly by washing the solid support, said incubation step being carried out (preferably at a temperature of 37° C.) for variable times of 1 hours, 3 hours, 5 hours, 24 hours and 48 hours.
(§3) As mentioned above, the epitopes of the invention should be recognized by the T cells in association with the MCH molecules and associate with these latter, particularly in the framework of the practice of the recognition test described above. This association can be weak (detectable at concentrations of peptide analogs of the order of 10^−4 to 10^−5 M), intermediate (detectable at concentrations of peptide analogs of the order of 10^−6 to 10^−7 M), or strong (detectable at concentrations of peptide analogs of the order of 10^−8 to 10^−9 M). The peptides associated with the MCH molecules in the scope of the present invention are preferably adapted to bond during at least about 3 hours, to said MCH molecules.

[2] = tested on: HLA molecules of the B51 type
Excerpt: as §1, §2, §3

[3] = tested on: HLA molecules of the B8 type
Excerpt: as §1, §2, §3

[4] = tested on: HLA molecules of the B18 type
Excerpt: as §1, §2, §3

[5] = tested on: HLA molecules of the A1 type
[6] = tested on: HLA molecules of the B62 type
Excerpt: as §1, §2, §3

Sequence | binding stably to HLA molecules of the B18 type [4] | binding stably to HLA molecules of the A1 type [5] | binding stably to HLA molecules of the B62 type [6] | further results
CPEEKQRHL (Human Papillomavirus) | binding stably | – | – | binding stably to HLA molecules of the B35 type [1]: binding stably; binding stably to HLA molecules of the B51 type [2]: binding stably; binding stably to HLA molecules of the B8 type [3]: binding stably
ISEYRHYCY (Human Papillomavirus) | binding stably | binding stably | – | –
LQPETTDLY (Human Papillomavirus) | – | – | binding stably | –
NLLGRNSF (listed as Homo sapiens) | – | – | binding stably | –
QAEPDRAHY (Human Papillomavirus) | binding stably | binding stably | – | –
QPETTDLYCY (Human Papillomavirus) | binding stably | binding stably | – | –
RVRAMAIY (listed as Homo sapiens) | – | – | binding stably | –
TAKSVTCTY (listed as Homo sapiens) | – | – | binding stably | –

Reference: patent publication US7288258B2, “Polyepitopic protein fragments of the E6 and E7 proteins of HPV, their production and their use particularly in vaccination” (Peptide Immune Ligands, priority 1999, dated 2007)
